Experimental data from PMC9860125 (The Journal of Biological Chemistry, 2022).

How the values were obtained:
EmrE [1] = target: T1, EmrE (Escherichia coli, UniProt P23895); assay: ITC (pH […] ºC); NMR pH titration; ZZ-exchange NMR; format: binding; design: WT EmrE, antiparallel homodimer, in DMPC/DHPC isotropic bicelles
EmrE [2] = target: T1, EmrE; assay: SSME transport with purified EmrE in proteoliposomes, empty liposome control; format: biochemical; design: WT-EmrE in POPC proteoliposomes
Glu14 = Glu14 (UniProt position 14, GAILAEVIGTT); assay: NMR; settings: 45 °C; not stated (no added salt beyond the buffer components); 20 mM sodium acetate, 50 mM Mes, 50 mM Mops, 100 mM bicine, 2 mM TCEP, 0.01% sodium azide; Saturated with 2H-dTPP2+ (at least 4x the EmrE monomer concentration). Alternating access is in slow exchange, and the substrate is associated asymmetrically with subunit A.

T1 sequence (P23895 whole entry): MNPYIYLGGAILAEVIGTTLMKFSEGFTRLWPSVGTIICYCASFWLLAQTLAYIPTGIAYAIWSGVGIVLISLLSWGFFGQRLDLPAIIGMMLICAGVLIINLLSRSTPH

Compound	Kd (EmrE [1]) [µM]	SSME transport with purified EmrE in proteoliposomes, empty liposome control (EmrE [2])	further results
c1ccc([P+](c2ccccc2)(c2ccccc2)c2ccc([P+](c3ccccc3)(c3ccccc3)c3ccccc3)cc2)cc1 [dTPP2+, 1,4-phenylenebis(triphenylphosphonium) bromide]	8.1 ± 0.4	–	–
c1ccc(C(c2ccccc2)(c2ccccc2)c2ccc([P+](c3ccccc3)(c3ccccc3)c3ccccc3)cc2)cc1 [dTPP+, triphenyl[4-(triphenylmethyl)phenyl]phosphonium iodide]	9.3 ± 0.3	–	–
C[n+]1ccc(-c2cc[n+](C)cc2)cc1 [MV2+, methyl viologen]	–	Addition of the substrate gradient resulted in increased net flux compared with drug-free conditions, consistent with net symport	–
EmrE (small multidrug resistance transporter) (Escherichia coli)	–	–	pKa (Glu14): 6.2 ± 0.1
CC[n+]1c(-c2ccccc2)c2cc(N)ccc2c2ccc(N)cc21 [Eth+, ethidium]	–	observed signal under these conditions is transport dependent on the protein as empty controls show minimal signal	–
